Experimental data: patent US7348427B2, “Antipathogenic benzamide compounds” (Genesoft Pharmaceuticals, Inc., priority 2001, dated 2008)

Key:
[1] = system: Candida albicans (ATCC 38247); assay: Antifungal MIC assay; assay type: cell-based; settings: B = C. albicans ATCC 38247
Outline: (§1)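 MICs were determined by broth microdilution following NCCLS documents M7-A4, M11-A4 and M27-T. The antifungal assay followed the method in the Manual of Clinical Microbiology (1995).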

[2] = system: Staphylococcus aureus (ATCC 27660, a methicillin resistant strain (MRSA)); assay: MIC, NCCLS broth microdilution assay; assay type: cell-based; settings: F = S. aureus ATCC 27660
Outline: as §1

[3] = system: Streptococcus pneumoniae (ATCC 51422, a penicillin resistant strain (PRSP)); assay: MIC, NCCLS broth microdilution assay; assay type: cell-based; settings: I = S. pneumoniae ATCC 51422
Outline: as §1

[4] = system: Staphylococcus epidermidis (ATCC 12228); assay: MIC, NCCLS broth microdilution assay; assay type: cell-based; settings: G = S. epidermidis ATCC 12228
Outline: as §1

[5] = system: Enterococcus faecium (ATCC 51559, a vancomycin resistant strain (VRE)); assay: MIC, NCCLS broth microdilution assay; assay type: cell-based; settings: D = E. faecium ATCC 51559
Outline: as §1

[6] = system: Bacillus cereus (ATCC 11778); assay: MIC, NCCLS broth microdilution assay; assay type: cell-based; settings: A = B. cereus ATCC 11778
Outline: as §1

[7] = system: Staphylococcus aureus (ATCC 13709, a methicillin sensitive strain (MSSA)); assay: MIC, NCCLS broth microdilution assay; assay type: cell-based; settings: E = S. aureus ATCC 13709
Outline: as §1

E. faecalis ATCC 29212 = assay: MIC, NCCLS broth microdilution assay; assay type: cell-based, Enterococcus faecalis; settings: C = E. faecalis ATCC 29212
Outline: (§2)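 Broth microdilution per NCCLS M7-A4 (1997) guidelines; MIC recorded as minimal inhibitory concentration.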

S. pneumoniae ATCC 49619 = assay: MIC, NCCLS broth microdilution assay; assay type: cell-based, Streptococcus pneumoniae; settings: H = S. pneumoniae ATCC 49619
Outline: as §2

Cn1cc(NC(=O)c2cc(NC(=O)c3ccc(Cl)cc3F)c[nH]2)cc1C(=O)Nc1cc(C(=O)NCCN2CCCCC2)n(CCCO)c1 [Compound C-9]
Minimum Inhibitory Concentration (MIC) [1]: +++ (+++ = MIC ≦ 4) | Minimum Inhibitory Concentration (MIC) [2]: +++ (+++ = MIC ≦ 4) | Minimum Inhibitory Concentration (MIC) [3]: +++ (+++ = MIC ≦ 4) | Minimum Inhibitory Concentration (MIC) [4]: +++ (+++ = MIC ≦ 4) | Minimum Inhibitory Concentration (MIC) [5]: +++ (+++ = MIC ≦ 4) | Minimum Inhibitory Concentration (MIC) [6]: +++ (+++ = MIC ≦ 4) | Minimum Inhibitory Concentration (MIC) [7]: +++ (+++ = MIC ≦ 4) | Minimum Inhibitory Concentration (MIC) (E. faecalis ATCC 29212): +++ (+++ = MIC ≦ 4) | Minimum Inhibitory Concentration (MIC) (S. pneumoniae ATCC 49619): +++ (+++ = MIC ≦ 4)

CN(C)CCCn1cc(NC(=O)c2cc(NC(=O)c3cc(NC(=O)c4ccc(F)cc4F)cn3C)cn2C)cc1C(=O)NCCN1CCCCC1 [Compound D-2]
Minimum Inhibitory Concentration (MIC) [1]: + (+ = 12 ≦ MIC ≦ 32) | Minimum Inhibitory Concentration (MIC) [2]: +++ (+++ = MIC ≦ 4) | Minimum Inhibitory Concentration (MIC) [3]: +++ (+++ = MIC ≦ 4) | Minimum Inhibitory Concentration (MIC) [4]: +++ (+++ = MIC ≦ 4) | Minimum Inhibitory Concentration (MIC) [5]: +++ (+++ = MIC ≦ 4) | Minimum Inhibitory Concentration (MIC) [6]: +++ (+++ = MIC ≦ 4) | Minimum Inhibitory Concentration (MIC) [7]: + (+ = 12 ≦ MIC ≦ 32) | Minimum Inhibitory Concentration (MIC) (E. faecalis ATCC 29212): +++ (+++ = MIC ≦ 4) | Minimum Inhibitory Concentration (MIC) (S. pneumoniae ATCC 49619): +++ (+++ = MIC ≦ 4)

Cc1cc(NC(=O)c2cc(NC(=O)c3cc(NC(=O)c4ccc(Cl)cc4F)cn3C)cn2CCN2CCOCC2)sn1 [Compound D-8]
Minimum Inhibitory Concentration (MIC) [1]: >32 µg/mL | Minimum Inhibitory Concentration (MIC) [2]: +++ (+++ = MIC ≦ 4) | Minimum Inhibitory Concentration (MIC) [3]: +++ (+++ = MIC ≦ 4) | Minimum Inhibitory Concentration (MIC) [4]: +++ (+++ = MIC ≦ 4) | Minimum Inhibitory Concentration (MIC) [5]: +++ (+++ = MIC ≦ 4) | Minimum Inhibitory Concentration (MIC) [6]: +++ (+++ = MIC ≦ 4) | Minimum Inhibitory Concentration (MIC) [7]: +++ (+++ = MIC ≦ 4) | Minimum Inhibitory Concentration (MIC) (E. faecalis ATCC 29212): +++ (+++ = MIC ≦ 4) | Minimum Inhibitory Concentration (MIC) (S. pneumoniae ATCC 49619): +++ (+++ = MIC ≦ 4)

Cc1cc(NC(=O)c2cc(NC(=O)c3cc(NC(=O)c4ccc(Cl)cc4F)c[nH]3)cn2CCN2CCOCC2)sn1 [Compound D-9]
Minimum Inhibitory Concentration (MIC) [1]: >32 µg/mL | Minimum Inhibitory Concentration (MIC) [2]: +++ (+++ = MIC ≦ 4) | Minimum Inhibitory Concentration (MIC) [3]: +++ (+++ = MIC ≦ 4) | Minimum Inhibitory Concentration (MIC) [4]: +++ (+++ = MIC ≦ 4) | Minimum Inhibitory Concentration (MIC) [5]: +++ (+++ = MIC ≦ 4) | Minimum Inhibitory Concentration (MIC) [6]: +++ (+++ = MIC ≦ 4) | Minimum Inhibitory Concentration (MIC) [7]: +++ (+++ = MIC ≦ 4) | Minimum Inhibitory Concentration (MIC) (E. faecalis ATCC 29212): +++ (+++ = MIC ≦ 4) | Minimum Inhibitory Concentration (MIC) (S. pneumoniae ATCC 49619): +++ (+++ = MIC ≦ 4)

Cc1cc(NC(=O)c2cc(NC(=O)c3cc(NC(=O)c4ccc(Cl)cc4F)c[nH]3)cn2CCN2CCCC2)sn1 [Compound D-10]
Minimum Inhibitory Concentration (MIC) [1]: ++ (++ = 4 < MIC < 12) | Minimum Inhibitory Concentration (MIC) [2]: + (+ = 12 ≦ MIC ≦ 32) | Minimum Inhibitory Concentration (MIC) [3]: +++ (+++ = MIC ≦ 4) | Minimum Inhibitory Concentration (MIC) [4]: +++ (+++ = MIC ≦ 4) | Minimum Inhibitory Concentration (MIC) [5]: +++ (+++ = MIC ≦ 4) | Minimum Inhibitory Concentration (MIC) [6]: +++ (+++ = MIC ≦ 4) | Minimum Inhibitory Concentration (MIC) [7]: +++ (+++ = MIC ≦ 4) | Minimum Inhibitory Concentration (MIC) (E. faecalis ATCC 29212): +++ (+++ = MIC ≦ 4) | Minimum Inhibitory Concentration (MIC) (S. pneumoniae ATCC 49619): +++ (+++ = MIC ≦ 4)

Cc1cc(NC(=O)c2cc(NC(=O)c3cc(NC(=O)c4ccc(Cl)cc4F)cn3C)cn2CCCN(C)C)sn1 [Compound D-12]
Minimum Inhibitory Concentration (MIC) [1]: +++ (+++ = MIC ≦ 4) | Minimum Inhibitory Concentration (MIC) [2]: +++ (+++ = MIC ≦ 4) | Minimum Inhibitory Concentration (MIC) [3]: +++ (+++ = MIC ≦ 4) | Minimum Inhibitory Concentration (MIC) [4]: +++ (+++ = MIC ≦ 4) | Minimum Inhibitory Concentration (MIC) [5]: ++ (++ = 4 < MIC < 12) | Minimum Inhibitory Concentration (MIC) [6]: +++ (+++ = MIC ≦ 4) | Minimum Inhibitory Concentration (MIC) [7]: +++ (+++ = MIC ≦ 4) | Minimum Inhibitory Concentration (MIC) (E. faecalis ATCC 29212): +++ (+++ = MIC ≦ 4) | Minimum Inhibitory Concentration (MIC) (S. pneumoniae ATCC 49619): +++ (+++ = MIC ≦ 4)

Cn1cc(NC(=O)c2cc(NC(=O)c3ccc(Cl)cc3F)c[nH]2)cc1C(=O)Nc1cc(C(=O)NCCN2CCCCC2)n(CCN2CCOCC2)c1 [Compound D-13]
Minimum Inhibitory Concentration (MIC) [1]: + (+ = 12 ≦ MIC ≦ 32) | Minimum Inhibitory Concentration (MIC) [2]: +++ (+++ = MIC ≦ 4) | Minimum Inhibitory Concentration (MIC) [3]: +++ (+++ = MIC ≦ 4) | Minimum Inhibitory Concentration (MIC) [4]: +++ (+++ = MIC ≦ 4) | Minimum Inhibitory Concentration (MIC) [5]: ++ (++ = 4 < MIC < 12) | Minimum Inhibitory Concentration (MIC) [6]: +++ (+++ = MIC ≦ 4) | Minimum Inhibitory Concentration (MIC) [7]: +++ (+++ = MIC ≦ 4) | Minimum Inhibitory Concentration (MIC) (E. faecalis ATCC 29212): +++ (+++ = MIC ≦ 4) | Minimum Inhibitory Concentration (MIC) (S. pneumoniae ATCC 49619): +++ (+++ = MIC ≦ 4)
